Results taken from patent publication US7553969B1, “Substituted phenethylamine derivatives” (Chugai Seiyaku Kabushiki Kaisha, priority 1999, dated 2009).
Where a SMILES comes first, the peptide text is derived from it. [ ]: non-standard residue; d: D form. NMeTyr(3-tBu) = CN[C@@H](Cc1ccc(O)c(C(C)(C)C)c1)C(=O)O; Tyr(3-tBu) = CC(C)(C)c1cc(C[C@H](N)C(=O)O)ccc1O; Phe(3,4-F2) = N[C@@H](Cc1ccc(F)c(F)c1)C(=O)O; NMePhe(4-F) = CN[C@@H](Cc1ccc(F)cc1)C(=O)O; Tyr(3-F) = N[C@@H](Cc1ccc(O)c(F)c1)C(=O)O; Phe(4-Cl) = N[C@@H](Cc1ccc(Cl)cc1)C(=O)O; Phe(3-F) = N[C@@H](Cc1cccc(F)c1)C(=O)O; Phe(4-F) = N[C@@H](Cc1ccc(F)cc1)C(=O)O; NMeV = CN[C@H](C(=O)O)C(C)C

Legend:
[1] = tested on: specimen of longitudinal muscle in the duodenum extracted from a rabbit (motilin-induced contraction); assay: Action on the motilin-induced contraction of a specimen of longitudinal muscle in the duodenum extracted from a rabbit; details: Oryctolagus cuniculus, organ bath, Krebs solution 28° C., read-out: Contraction suppressing test, pA2 (converted)
Protocol: Action on the Contraction of a Specimen of Longitudinal Muscle in the Duodenum Extracted from a Rabbit
The action on the motilin-induced contraction of a specimen of longitudinal muscle in the duodenum extracted from a rabbit was investigated by the following method. A duodenum specimen (5×15 mm) extracted from a slaughtered rabbit was suspended in an organ bath (10 ml) such that the longitudinal muscle would run vertically; the bath was filled with a Krebs solution kept at 28° C. A mixed gas (95% O2 and 5% CO2) was continuously bubbled into the Krebs solution and the contraction of the duodenum specimen was recorded isotonically (with a 1-g load) via an isotonic transducer (ME-3407, ME Commercial, Tokyo, Japan). The degree of contraction was expressed in relative values, with the contraction by acetylcholine at a dose of 10^−4 M being taken as 100%. The activity of the compound was calculated as pA2 value indicating its effect on the dose-dependent muscle contraction by the motilin put into the organ bath.

motilin receptor = molecular target: T1, motilin receptor (Oryctolagus cuniculus, UniProt G1T803); assay: Motilin receptor binding test (125I motilin, rabbit duodenum protein sample); details: 125I motilin 25 pM, concentration reducing specific binding by 50%
T1 construct: homogenized in 50 mM Tris buffer to prepare a protein sample; from tissue; host or cells: rabbit duodenum homogenate (mucous membrane separated)
T1 sequence (G1T803 1-400): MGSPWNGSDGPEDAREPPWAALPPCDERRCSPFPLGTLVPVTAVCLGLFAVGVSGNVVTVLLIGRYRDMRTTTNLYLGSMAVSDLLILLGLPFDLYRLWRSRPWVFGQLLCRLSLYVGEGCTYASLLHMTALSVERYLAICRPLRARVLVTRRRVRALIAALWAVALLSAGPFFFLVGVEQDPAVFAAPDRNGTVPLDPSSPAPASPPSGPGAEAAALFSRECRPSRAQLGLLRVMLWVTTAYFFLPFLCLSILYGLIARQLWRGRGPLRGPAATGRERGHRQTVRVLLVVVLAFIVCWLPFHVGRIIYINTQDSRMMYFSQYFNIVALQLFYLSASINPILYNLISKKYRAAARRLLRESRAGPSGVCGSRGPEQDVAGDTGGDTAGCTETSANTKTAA
Protocol: Motilin receptor binding test
A motilin receptor binding test was conducted in the following manner [Vantrappen et al., Regul. Peptides, 15, 143 (1986)]. The duodenum was extracted from a slaughtered rabbit, had the mucous membrane separated and homogenized in 50 mM Tris buffer to prepare a protein sample. The protein sample was incubated together with ^125I motilin 25 pM and thereafter the radioactivity bound to the protein was measured. Specific binding was defined as the difference between the radioactivity in the case of adding a great excess amount of motilin (10^−7 M) and that in the case of no adding. The activity of the compound was expressed by IC50 (in nM), as the concentration sufficient to reduce the specific binding by 50%.

IC50 (motilin receptor) [nM]	SMILES	Kb [1] [nM]
2.2	Cc1cc(=O)[nH]c([C@H](Cc2ccc(O)c(C(C)(C)C)c2)NC(=O)[C@H](C(C)C)N(C)C(=O)[C@@H](N)Cc2ccc(F)cc2)n1 (single isomer, unassigned) [Example 19, 2-(1-(2-((2-amino-3-(4-fluorophenyl)propionyl)-N-methylamino)-3-methyl-butyrylamino)-2-(3-tert-butyl-4-hydroxyphenyl)ethyl)-6-methyl-4-pyrimidinone]	2
0.67	CC(C)[C@@H](C(=O)N[C@@H](Cc1ccc(O)c(C(C)(C)C)c1)c1nccs1)N(C)C(=O)[C@@H](N)Cc1ccc(F)cc1 (single isomer, unassigned) [Example 23, 2-((2-amino-3-(4-fluorophenyl)propionyl)-N-methylamino)-3-methylbutyric acid 2-(3-tert-butyl-4-hydroxyphenyl)-1-(thiazol-2-yl)ethylamide]	0.501
0.89	CC(C)[C@@H](C(=O)N(C)[C@@H](Cc1ccc(O)c(C(C)(C)C)c1)C(N)=O)N(C)C(=O)[C@@H](N)Cc1ccc(F)cc1 [Example 1, Phe(4-F)-N-Me-Val-N-Me-Tyr(3-tBu)-NH2] (H-[Phe(4-F)]-[NMeV]-[NMeTyr(3-tBu)]-NH2)	1.58
0.71	CC(C)[C@@H](C(=O)N(C)[C@@H](Cc1ccc(O)c(C(C)(C)C)c1)C(N)=O)N(C)C(=O)[C@@H](N)Cc1ccc(Cl)cc1 [Example 2, Phe(4-Cl)-N-Me-Val-N-Me-Tyr(3-tBu)-NH2] (H-[Phe(4-Cl)]-[NMeV]-[NMeTyr(3-tBu)]-NH2)	2
1.5	CC(C)[C@@H](C(=O)N(C)[C@@H](Cc1ccc(O)c(C(C)(C)C)c1)C(N)=O)N(C)C(=O)[C@@H](N)Cc1ccc(F)c(F)c1 [Example 3, Phe(3,4-F2)-N-Me-Val-N-Me-Tyr(3-tBu)-NH2] (H-[Phe(3,4-F2)]-[NMeV]-[NMeTyr(3-tBu)]-NH2)	2
1.6	CC(C)[C@@H](C(=O)N(C)[C@@H](Cc1ccc(O)c(C(C)(C)C)c1)C(N)=O)N(C)C(=O)[C@@H](N)Cc1cccc(F)c1 [Example 4, Phe(3-F)-N-Me-Val-N-Me-Tyr(3-tBu)-NH2] (H-[Phe(3-F)]-[NMeV]-[NMeTyr(3-tBu)]-NH2)	5.01
0.35	CC(C)[C@@H](C(=O)N[C@@H](Cc1ccc(O)c(C(C)(C)C)c1)C(=O)Nc1ccccn1)N(C)C(=O)[C@@H](N)Cc1ccc(F)cc1 [Example 8, 2-((2-amino-3-(4-fluorophenyl)propionyl)-N-methylamino)-3-methylbutyric acid 2-(3-tert-butyl-4-hydroxyphenyl)-1-(2-pyridylcarbamoyl)ethylamide]	0.316
1	CC(C)[C@@H](C(=O)N[C@H](CNC(N)=O)Cc1ccc(O)c(C(C)(C)C)c1)N(C)C(=O)[C@@H](N)Cc1ccc(F)cc1 [Example 9, N-(2-(2-((2-amino-3-(4-fluorophenyl)propionyl)-N-methylamino)-3-methylbutyrylamino)-3-(3-tBu-4-hydroxyphenyl)propyl)urea]	1
0.52	CC(C)[C@@H](C(=O)N[C@H](CNS(N)(=O)=O)Cc1ccc(O)c(C(C)(C)C)c1)N(C)C(=O)[C@@H](N)Cc1ccc(F)cc1 [Example 12, 2-(2-(2-amino-3-(4-fluorophenylpropanoyl-N-methylamino)-3-methyl)butyrylamino)-3-(3-tert-butyl-4-hydroxyphenyl)propylsulfamide]	0.501
0.7	CC(C)[C@@H](C(=O)N[C@H](CNS(C)(=O)=O)Cc1ccc(O)c(C(C)(C)C)c1)N(C)C(=O)[C@@H](N)Cc1ccc(F)cc1 [Example 14, N-[2-(3-tert-butyl-4-hydroxyphenyl)-1-(methanesulfonylaminomethyl)ethyl]-2-[N-(4-fluorophenylalaminoyl)methylamino]-3-methylbutanamide]	0.501
0.82	CC(C)[C@@H](C(=O)N[C@H](CC(N)=O)Cc1ccc(O)c(C(C)(C)C)c1)N(C)C(=O)[C@@H](N)Cc1ccc(F)cc1 [Example 15, 2-((2-amino-3-(4-fluorophenyl)propionyl)-N-methylamino)-3-methylbutyric acid 2-(3-t-butyl-4-hydroxyphenyl)-1-carbamidomethylethylamide]	3.16
0.41	CC(C)[C@@H](C(=O)N[C@@H](Cc1ccc(O)c(C(C)(C)C)c1)CS(C)(=O)=O)N(C)C(=O)[C@@H](N)Cc1ccc(F)cc1 [Example 16, 2-((2-amino-3-(4-fluorophenyl)propionyl)-N-methylamino)-3-methylbutyric acid 2-(3-t-butyl-4-hydroxyphenyl)-1-methanesulfonylmethylethylamide]	0.398
0.7	CC(C)[C@@H](C(=O)N[C@H](CO)Cc1ccc(O)c(C(C)(C)C)c1)N(C)C(=O)[C@@H](N)Cc1ccc(F)cc1 [Example 17, 2-(2-((2-amino-3-(4-fluorophenyl)propionyl)-N-methylamino)-3-methyl-butyrylamino)-3-(3-tBu-4-hydroxyphenyl)propanol]	0.794
0.27	CC(C)[C@@H](C(=O)N[C@@H](Cc1ccc(O)c(C(C)(C)C)c1)c1nnco1)N(C)C(=O)[C@@H](N)Cc1ccc(F)cc1 [Example 21, 2-((2-amino-3-(4-fluorophenyl)propionyl)-N-methylamino)-3-methylbutyric acid 2-(3-t-butyl-4-hydroxyphenyl)-1-(1,3,4-oxadiazol-2-yl)ethylamide]	0.158
0.52	CC(C)[C@@H](C(=O)N[C@@H](Cc1ccc(O)c(C(C)(C)C)c1)c1ncno1)N(C)C(=O)[C@@H](N)Cc1ccc(F)cc1 [Example 22, 2-((2-amino-3-(4-fluorophenyl)propionyl)-N-methylamino)-3-methylbutyric acid 2-(3-t-butyl-4-hydroxyphenyl)-1-(1,2,4-oxadiazol-5-yl)ethylamide]	5.01
0.94	CC(C)[C@@H](C(=O)N[C@@H](Cc1ccc(O)c(C(C)(C)C)c1)c1nnc[nH]1)N(C)C(=O)[C@@H](N)Cc1ccc(F)cc1 [Example 24, 2-((2-amino-3-(4-fluorophenyl)propionyl)-N-methylamino)-3-methylbutyric acid 2-(3-t-butyl-4-hydroxyphenyl)-1-(1,3,4-triazol-2-yl)ethylamide]	0.794
0.52	CC(C)[C@@H](C(=O)N[C@@H](Cc1ccc(O)c(C(C)(C)C)c1)C(N)=O)N(C)C(=O)[C@@H](N)Cc1ccc(F)cc1 [Example 28, Phe(4-F)-N-Me-Val-Tyr(3-tBu)-NH2] (H-[Phe(4-F)]-[NMeV]-[Tyr(3-tBu)]-NH2)	1
0.45	CN[C@@H](Cc1ccc(F)cc1)C(=O)N(C)[C@H](C(=O)N[C@@H](Cc1ccc(O)c(C(C)(C)C)c1)C(N)=O)C(C)C [Example 29, N-Me-Phe(4-F)-N-Me-Val-Tyr(3-tBu)-NH2] (H-[NMePhe(4-F)]-[NMeV]-[Tyr(3-tBu)]-NH2)	2
0.81	CCN[C@@H](Cc1ccc(F)cc1)C(=O)N(C)[C@H](C(=O)N[C@@H](Cc1ccc(O)c(C(C)(C)C)c1)C(N)=O)C(C)C [Example 30, N-Et-Phe(4-F)-N-Me-Val-Tyr(3-tBu)-NH2]	0.794
0.79	CNC(=O)[C@H](Cc1ccc(O)c(C(C)(C)C)c1)NC(=O)[C@H](C(C)C)N(C)C(=O)[C@@H](N)Cc1ccc(F)cc1 [Example 31, Phe(4-F)-N-Me-Val-Tyr(3-tBu)-NHMe] (H-[Phe(4-F)]-[NMeV]-[Tyr(3-tBu)]-NHMe)	0.316
0.76	CNC(=O)[C@H](Cc1ccc(O)c(C(C)(C)C)c1)NC(=O)[C@H](C(C)C)N(C)C(=O)[C@H](Cc1ccc(F)cc1)NC [Example 32, N-Me-Phe(4-F)-N-Me-Val-Tyr(3-tBu)-NHMe] (H-[NMePhe(4-F)]-[NMeV]-[Tyr(3-tBu)]-NHMe)	0.794
1.7	CCN[C@@H](Cc1ccc(F)cc1)C(=O)N(C)[C@H](C(=O)N[C@@H](Cc1ccc(O)c(C(C)(C)C)c1)C(=O)NC)C(C)C [Example 33, N-Et-Phe(4-F)-N-Me-Val-Tyr(3-tBu)-NHMe]	3.98
1.5	CN[C@@H](Cc1ccc(F)cc1)C(=O)N(C)[C@H](C(=O)N(C)[C@@H](Cc1ccc(O)c(C(C)(C)C)c1)C(N)=O)C(C)C [Example 34, N-Me-Phe(4-F)-N-Me-Val-N-Me-Tyr(3-tBu)-NH2] (H-[NMePhe(4-F)]-[NMeV]-[NMeTyr(3-tBu)]-NH2)	0.398

SMILES	IC50 (motilin receptor) [nM]	Kb [1] [nM]
CC(C)[C@@H](C(=O)N(C)[C@@H](Cc1ccc(O)c(C(C)(C)C)c1)C(N)=O)N(C)C(=O)[C@@H](N)Cc1ccc(O)cc1F [Example 26, Tyr(2-F)-N-Me-Val-N-Me-Tyr(3-tBu)-NH2]	7.3	10
CC(C)[C@@H](C(=O)N(C)[C@@H](Cc1ccc(O)c(C(C)(C)C)c1)C(N)=O)N(C)C(=O)[C@@H](N)Cc1ccc(O)c(F)c1 [Example 27, Tyr(3-F)-N-Me-Val-N-Me-Tyr(3-tBu)-NH2] (H-[Tyr(3-F)]-[NMeV]-[NMeTyr(3-tBu)]-NH2)	1.2	2.51
